Where two headings read alike, the source gives them in different places. Peptide text beside a SMILES is read from it. * marks the point of attachment. 5FAM = O=C1OC2(c3ccc(O)cc3Oc3cc(O)ccc32)c2ccc(C(=O)*)cc21
Key:
MARK2 [1] = target: MARK2 (Homo sapiens, UniProt Q7KZI7); experiment: Antibody-linked fluorescence polarization assay of tR1 phosphorylation by MARK2; assay type: biochemical; details: 10 μM FlutR1, MARK2, ATP, antibody versus absence of MARK2, ATP, or antibody
Procedure: The ability for MARK2 to phosphorylate tR1 in vitro was further validated by incubating ^FlutR1 peptides with MARK2 and ATP and monitoring the fluorescence polarization of the solution following addition of antibodies specific for hTau pSer262 (FIG. 6C). In these experiments, ^FlutR1 peptides and MARK2 were incubated with and without ATP for 60 minutes at 32° C. in phosphorylation buffer. Following incubation, antibodies specific for hTau pSer262 were added to the reaction and allowed to incubate for an additional 60 minutes at room temperature. Due to the slower tumbling rate of an antibody-linked (and presumably phosphorylated) ^FlutR1 peptide, it is believed that the fluorescence polarization of the phosphorylated tR1 peptide would be higher than that of its un-phosphorylated counterpart.
Analysis of the activity of MARK2 proteins was performed in 60-μL phosphorylation buffer (50 mM Tris-HCl, pH 8.0, 5 mM MgCl2, 2 mM EGTA, 0.5 mM DTT, 0.5 mM benzamidine HCl, 0.5 mM PMSF) containing 100 μM ATP, 10 μM of ^FlutR1, and 10 nM MARK2. The reaction mixture was incubated at 32° C. for 1 hour. […] Fluorescence polarization was then measured using a SpectraMax M5e multi-mode plate reader (Molecular Devices, Sunnyvale, Calif.) in 384-well plates (#3575, Corning, Corning, N.Y.). […]

[2] = tested on: rat primary cortical neurons
MARK2 [3] = target: MARK2 (Rattus norvegicus, UniProt O08679); experiment: Immunofluorescence of PAO-induced MARK2-mediated tau Ser262 phosphorylation in neurons; assay type: cell-based
Sequence of MARK2 (Rattus norvegicus, UniProt O08679) (O08679 whole entry): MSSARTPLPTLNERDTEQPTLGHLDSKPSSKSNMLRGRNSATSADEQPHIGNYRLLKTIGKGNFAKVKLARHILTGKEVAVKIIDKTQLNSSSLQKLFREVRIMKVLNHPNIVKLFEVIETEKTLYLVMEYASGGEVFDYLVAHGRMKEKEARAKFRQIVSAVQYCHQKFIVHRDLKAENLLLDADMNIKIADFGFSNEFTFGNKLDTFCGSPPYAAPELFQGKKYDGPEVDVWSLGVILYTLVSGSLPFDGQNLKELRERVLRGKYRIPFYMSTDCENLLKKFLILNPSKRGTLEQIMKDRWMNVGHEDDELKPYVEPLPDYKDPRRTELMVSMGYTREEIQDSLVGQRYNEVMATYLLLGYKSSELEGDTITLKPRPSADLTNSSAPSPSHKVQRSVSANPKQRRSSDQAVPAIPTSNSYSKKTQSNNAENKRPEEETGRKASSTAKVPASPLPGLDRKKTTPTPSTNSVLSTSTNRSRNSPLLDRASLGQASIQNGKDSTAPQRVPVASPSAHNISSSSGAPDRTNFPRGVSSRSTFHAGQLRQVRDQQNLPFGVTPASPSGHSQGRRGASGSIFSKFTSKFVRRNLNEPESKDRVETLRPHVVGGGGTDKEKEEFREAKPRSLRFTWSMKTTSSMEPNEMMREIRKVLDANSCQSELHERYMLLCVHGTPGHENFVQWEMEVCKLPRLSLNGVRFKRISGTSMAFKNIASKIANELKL

Sequence of MARK2 (Homo sapiens, UniProt Q7KZI7) (Q7KZI7 whole entry): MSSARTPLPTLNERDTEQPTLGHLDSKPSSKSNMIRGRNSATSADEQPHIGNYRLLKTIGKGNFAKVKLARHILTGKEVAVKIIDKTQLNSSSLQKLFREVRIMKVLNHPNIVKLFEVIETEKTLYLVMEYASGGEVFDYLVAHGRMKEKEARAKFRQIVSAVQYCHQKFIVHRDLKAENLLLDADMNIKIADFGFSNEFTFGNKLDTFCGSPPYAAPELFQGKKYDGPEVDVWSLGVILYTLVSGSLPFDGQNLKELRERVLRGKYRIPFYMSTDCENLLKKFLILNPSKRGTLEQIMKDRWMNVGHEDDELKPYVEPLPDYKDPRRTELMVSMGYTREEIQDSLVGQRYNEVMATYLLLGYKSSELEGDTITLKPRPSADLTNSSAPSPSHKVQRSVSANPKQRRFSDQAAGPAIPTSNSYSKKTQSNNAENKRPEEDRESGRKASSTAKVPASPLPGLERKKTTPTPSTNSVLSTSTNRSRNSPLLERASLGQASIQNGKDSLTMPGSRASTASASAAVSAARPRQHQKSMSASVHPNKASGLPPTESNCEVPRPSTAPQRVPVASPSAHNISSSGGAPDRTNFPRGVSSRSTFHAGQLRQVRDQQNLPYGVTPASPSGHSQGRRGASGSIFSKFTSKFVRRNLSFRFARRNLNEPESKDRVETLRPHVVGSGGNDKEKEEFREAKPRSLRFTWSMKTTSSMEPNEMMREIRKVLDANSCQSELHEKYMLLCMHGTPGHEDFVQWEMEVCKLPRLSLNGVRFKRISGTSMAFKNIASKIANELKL

SMILES: CC[C@H](C)[C@H](NC(=O)[C@H](CCCCN)NC(=O)[C@H](CO)NC(=O)[C@H](CCCCN)NC(=O)[C@@H](NC(=O)[C@H](CC(N)=O)NC(=O)c1ccc2c(c1)C(=O)OC21c2ccc(O)cc2Oc2cc(O)ccc21)C(C)C)C(=O)NCC(=O)N[C@@H](CO)C(=O)N[C@H](C(=O)N[C@@H](CCC(=O)O)C(=O)N[C@@H](CC(N)=O)C(=O)N[C@@H](CC(C)C)C(=O)N[C@@H](CCCCN)C(N)=O)[C@@H](C)O [^FlutR1] (5FAM-NVKSKIGSTENLK-NH2)
- fluorescence polarization after addition of hTau pSer262 antibody (MARK2 [1]): polarization to be highest in solutions containing all reaction components
- intracellular uptake (fluorescence) ([2]; 10 μM FlutR1 alone, 4 hours): distinct fluorescent puncta within the cell body and neurites
- intracellular distribution (fluorescence) ([2]; 10 μM FlutR1 with 50 nM Baf): no fluorescent puncta following treatment and diffuse green fluorescence within the cell soma
- intracellular uptake (fluorescence) ([2]; 10 μM FlutR1 with 5 μM PAO): did not seem to affect the uptake
- intracellular distribution (fluorescence) ([2]; 10 μM FlutR1 with 100 μM CLQ): significant loss of discrete fluorescent puncta
- intracellular uptake (fluorescence) ([2]; 10 μM FlutR1 with 10 mM sodium azide): significant loss of fluorescent puncta within the cell body and neurites

SMILES: CO/C1=C\C(C)=C\[C@@H](C)[C@@H](O)[C@@H](C)C/C(C)=C/C=C/[C@H](OC)[C@@H]([C@@H](C)[C@@H](O)[C@H](C)[C@@]2(O)C[C@@H](O)[C@H](C)[C@@H](C(C)C)O2)OC1=O [bafilomycin A1, reference compound]
- effect of endosome disruptor alone on PAO-induced MARK2 mediated phosphorylation of tau (MARK2 [3]; without tR1, 5 μM PAO): Neither bafilomycin A1 nor chloroquine treatments alone affected

SMILES: CCN(CC)CCCC(C)Nc1ccnc2cc(Cl)ccc12 (centres unmarked) [chloroquine, reference compound]
- effect of endosome disruptor alone on PAO-induced MARK2 mediated phosphorylation of tau (MARK2 [3]): Neither bafilomycin A1 nor chloroquine treatments alone affected

From patent US20210147481A1, “PEPTIDE-BASED INHIBITORS OF MARK FAMILY PROTEINS” (Ohio Universtiy, priority 2017, published 2021)
